Experimental data as given in PubChem BioAssay (NCI).
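96-well plates; 48 h exposure; 5 concentrations. Endpoints by linear interpolation between flanking doses. Not reached: highest tested concentration assigned. At the GI50, growth is halved. TGI: concentration producing complete growth inhibition.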

Tests used:
Experiment in all cases: DTP human tumour cell line panel, 48 h
TK-10 renal = system: TK-10 renal
KM12 colon = system: KM12 colon
MDA-MB-231 breast = system: MDA-MB-231 breast
NCI/ADR-RES ovarian = system: NCI/ADR-RES ovarian
IGROV1 ovarian = system: IGROV1 ovarian
U251 CNS = system: U251 CNS
LOX IMVI melanoma = system: LOX IMVI melanoma
UACC-257 melanoma = system: UACC-257 melanoma
786-0 renal = system: 786-0 renal
SNB-75 CNS = system: SNB-75 CNS

Compound	GI50 (TK-10 renal)	TGI (TK-10 renal)	GI50 (KM12 colon)	TGI (KM12 colon)	GI50 (MDA-MB-231 breast)	TGI (MDA-MB-231 breast)	GI50 (NCI/ADR-RES ovarian)	TGI (NCI/ADR-RES ovarian)	GI50 (IGROV1 ovarian)	TGI (IGROV1 ovarian)	GI50 (U251 CNS)	TGI (U251 CNS)	GI50 (LOX IMVI melanoma)	TGI (LOX IMVI melanoma)	GI50 (UACC-257 melanoma)	TGI (UACC-257 melanoma)	GI50 (786-0 renal)	TGI (786-0 renal)	GI50 (SNB-75 CNS)	TGI (SNB-75 CNS)
CS(=O)(=O)Nc1ccc(-c2cc(-c3ccccc3)cc(C(N)=O)c2N)cc1	> 25 µM	> 25 µM	20.5 µM	> 25 µM	> 25 µM	> 25 µM	> 25 µM	> 25 µM	> 25 µM	> 25 µM	> 25 µM	> 25 µM	> 25 µM	> 25 µM	> 25 µM	> 25 µM	> 25 µM	> 25 µM	8.89 µM	> 25 µM
COc1cc(-c2nc3ccccc3s2)ccc1NC(=O)COc1ccc(Cl)cc1	2.68 µM	7.06 µM	3.91 µM	> 100 µM	4.98 µM	> 100 µM	3.22 µM	27.6 µM	1.14 µM	21.2 µM	2.23 µM	6.8 µM	4.69 µM	> 100 µM	13.5 µM	> 100 µM	1.96 µM	4 µM	42.9 µM	> 100 µM
O=[N+]([O-])c1ccc(Sc2ncnc3nc[nH]c23)c2nonc12	2.34 µM	23.7 µM	15.1 µM	> 100 µM	8.15 µM	24.2 µM	5.16 µM	28.9 µM	2.32 µM	7.64 µM	14.8 µM	50.5 µM	1.04 µM	16 µM	4.52 µM	18.7 µM	1.74 µM	5.16 µM	1.83 µM	14 µM
